“Also recorded” adds a separate entry of the source.
Columns and labels:
hES cells [1] = test: hES differentiation as embryoid bodies (EBs) in suspension culture, scoring of beating EBs; type: cell-based, human; details: for number of EBs with beating foci: 5 μM in END2-CM, added early (during or shortly after EB formation), day 12, vs END2-CM alone
Method: This method describes hES differentiation through the formation of embryoid bodies (EB) from hES cells grown on MEF. EBs can also be generated from hES grown in feeder free systems. Formed EBs were then cultured in respective media such as SF or END2-CM. […] Enzymatically passaged hES cells grown on feeder cells were washed once with PBS^+ and treated with Collagenase IV (1 mg/ml) for 3-4 min at 37° C. The Collagenase IV solution was replaced by DMEM and the cells were mechanically dissociated with a pipette tip. Cells were then harvested using a cell scraper and the cell suspension was transferred to a 50 ml tube (Falcon). Cell clumps were collected by gravity and the supernatant was aspirated. Cells were resuspended in fresh DMEM medium aiming to uniformly disperse the cell clumps in the suspension. An equal volume of the cell suspension was then transferred to ultra low attachment plates (Costar). […] Alternatively, cells can be seeded into plates under conditions supporting cell adherence to induce differentiation of hES attached to a surface. In suspension culture, EBs were formed in ultra low attachment plates in SF medium over night. After over night incubation SF medium was replace by fresh SF medium or END2-CM respectively for further differentiation. Subsequent medium changes were performed every 3-4 days. Usually, cells were cultured over a period of 12-13 days before the visual analysis of the proportion of beating EBs under a microscope was performed followed by cell collection for additional readouts. Multiple beating areas on single EBs were not counted separately. […] Cell harvest and analysis at time points other then 12-13 days after EB formation is indicated in the respective examples and figures of this embodiment. […] An average value per well was calculated and presented. hES differentiation in suspension culture: EBs were formed in ultra low attachment plates in SF medium over night. After over night incubation SF medium was replace by fresh SF medium or END2-CM. […] Subsequent medium changes were performed every 3-4 days. Usually, cells were cultured over a period of 12-13 days. […] Medium change was performed at day 3, 6 and 9 after EB formation.

hES cells [2] = test: Quantification of cardiomyocytes by Cytospin and MF20 staining; type: cell-based, human
Method: (§1) To more accurately determine the number of cardiomyocytes in the differentiated cell population, EBs were collected, washed in PBS^− and incubated with 0.05% Trypsin for 5 min at 37° C. Cell clumps were triturated and incubated for another 5 min at 37° C. Trypsin activity was inactivated with serum containing media and cells were collected via centrifugation at 2500 rpm for 4 min at 4° C. The cell pellet was resuspended in PBS for cell count and cytospun onto glass slides at 500 rpm for 5 min at low acceleration using 1×10^5 cells. Cells were stained immediately (see previous example) and a cell count performed.
(§2) Readouts were performed on day 13: the percentage of beating EBs was defined, the average cell number per well was counted via a cytometer after EBs dissociation with trypsin, the percentage of cardiomyocytes was divined via cytospin followed by cardiomyocyte specific anti α-Myosin Heavy Chain stain (MF20 antibody), and RNA was harvest for qRT-PCR.

hES cells [3] = test: Cell count per well after EB differentiation
Method: as §1, §2

hES cells [4] = test: qRT-PCR of cardiac and lineage marker genes in differentiating EBs; type: cell-based, human
Method: RNA extraction: EBs at the end of the twelve day period or as indicated in the text were harvested. All EBs from 3 wells were pooled and washed once in PBS^−. Trizol (Invitrogen) was added before freezing the EBs at −80° C. to enhance cell lysis. Frozen samples were thawed and harshly mixed. Chloroform was added to the sample and incubated for 3 min at room temperature. The sample was centrifuged for 15 min at 13000 rpm at 4° C. and the aqueous phase collected. An equal volume of 70% ethanol was added before the sample was loaded onto an RNeasy mini column (Qiagen). The column was centrifuged for 15 sec at ≧8000 g. The rest of the purification steps were performed according to manufacturer's instructions. RNA was eluted in RNase-free water. 5 μg of the RNA sample were then treated with DNase (Invitrogen) in a volume of 50 μl. The mixture was incubated at room temperature for 30 min and heat inactivated for 10 min at 80° C. before cooling rapidly on ice.
Reverse transcriptase: 5 μg of total RNA was mixed with 2 μl of 3 μg/μl random primers (Invitrogen) in a final volume of 100 μl. 75 μl were reversed transcribed (BioLabs), the remaining 25 μl served as a negative control. Samples were incubated for 1 hour at 37° C. before the reaction was terminated for 5 min at 95° C.
Real-time PCR: The PCR reaction was performed on 100 ng of cDNA, with 15 μl of 2× IQ™ SYBR® Green Supermix (Biorad) in a final reaction volume of 30 μl. To minimize variations in the triplicates, a master mix was prepared containing all reaction components except cDNA. PCR was performed on an iCycler™ (Biorad), annealing at 58° C. for 30 sec, extension at 72° C. for 45 sec, 40 cycles in total. Relative expression values were obtained by normalizing CT values of the tested genes in comparison with CT values of the housekeeping gene α-Actin using the ΔΔ CT method (19). The samples were subjected to PCR amplification with human gene primers including: […]
The samples were subjected to PCR amplification with human gene primers including: […]
The samples were subjected to PCR amplification with human gene primers including MESP1 (sense primer: […]; antisense primer: […]).

hES cells [5] = test: EB morphology, H&E staining on paraffin sections; type: cell-based, human
Method: Paraffin sections: Beating EBs were collected and fixed for 15 min in 10% formalin at room temperature. EBs were then embedded in 1.5% agarose and dehydrated through 70% to 100% ethanol with a last incubation in xylene. The agarose block was then embedded in paraffin. 5 μm thick sections were cut in ribbons, floated on a warm water bath of 45° C., mounted on slides, and left to air dry at 37° C. overnight.
For hES culture on human feeder cells, see Example 2. For Immunohistochemistry performed here, see example 3. H&E staining on Paraffin sections was performed at the BSF facility (Biopolis).

[6] = system: JNK and/or p42/p44 MAP kinase; details: cited from earlier work
hES cells [7] = test: hES differentiation as embryoid bodies (EBs) in suspension culture, scoring of beating EBs; type: cell-based; details: hES maintained on human feeder (HF), 12 days; END2-CM only, or SB203580 at 5 μM in END2-CM
[8] = system: mouse embryonic carcinoma cell line P19; details: cited from earlier work
hES cells [9] = details: Vitamin C added to the END2-hES co-culture system; cited from earlier work
[10] = 0.2 μM and 2 μM in bSF, 12 days
[11] = Example 5, END2-CM alone, or SB203580 at 5 μM in END2-CM
[12] = inhibitor added day 6 onwards, END2-CM
[13] = high concentration (20 μM) in END2-CM
[14] = END2-CM supplemented with 0.1 mM Vitamin C, day 12

CC(=O)O [AA, Acetic Acid]
percentage of beating EBs on day 13 (hES cells [1]; 0.5 μM in bSFS vs bSFS alone): about the same | percentage of beating EBs on day 13 (hES cells [1]; 5 μM in bSFS vs bSFS alone): slide increase | proportion of cardiomyocytes (hES cells [2]; 0.5 μM or 5 μM AA in bSFS, day 13): slightly increased | day 13 cell count per well of a 6-well plate (hES cells [3]; bSFS + 0.5 μM Acetic Acid (AA)): 1.18 × 10^6 | day 13 cell count per well of a 6-well plate (hES cells [3]; bSFS + 5.0 μM AA): 1.03 × 10^6 | relative expression of α-MHC (hES cells [4]; 0.5 μM in bSFS vs bSFS alone): about the same | relative expression of α-MHC (hES cells [4]; 5 μM in bSFS vs bSFS alone): slide increase | fold increase in relative α-MHC expression (hES cells [4]; AA at a 0.5 μM concentration in bSFS (second statement)): about 2 fold

CCCCC[C@H](O)/C=C/[C@@H]1[C@H]2C/C(=C/CCCC(=O)[O-])O[C@H]2C[C@H]1O.[Na+] [PGI2, (5Z, 9α, 11α, 13E, 15S)-6,9-Epoxy-11,15-dihydroxyprosta-5,13-dien-1-oic acid Sodium salt]
fold higher percentage of beating EBs (hES cells [1]; [10]): 3 fold | EB beating levels and marker gene expression levels compared to END2-CM (hES cells [1]; bSF with PGI2 at 0.2 μM and 2 μM): equivalent or even higher | fold higher relative expression of the cardiac marker α-MHC (hES cells [4]; [10]): 2-3 fold

Oc1ccc(-c2nc(-c3ccncc3)c(-c3ccc(F)cc3)[nH]2)cc1 [SB202190]
number of EBs with beating foci (hES cells [1]): the same effect; also recorded: comparable cardiogenic effect

C[S+]([O-])c1ccc(-c2nc(-c3ccc(F)cc3)c(-c3ccncc3)[nH]2)cc1 (centres unmarked) [SB203580, 4-(4-Fluorophenyl)-2-(4-methylsulfinylphenyl)-5-(4-pyridyl)1H-imidazole]
morphology of EBs (hES cells [5]; higher concentrations in END2-CM, 12 days): more compact and do not form epithelial visceral endoderm | appearance of neural progenitor population in EBs (hES cells [5]; higher doses (>5 μM-25 μM), END2 CM): morphological uniform neuroepithelial EBs with clear rosette structure formed | neurite-like outgrowth of attached EBs (hES cells [5]; serum free condition + 10 μM, 12 days): high number of neurite-like outgrowth | number of EBs with beating foci (hES cells [1]): increased | beating (hES cells [1]; 15 μM or more in END2-CM): declined | formation of beating foci at day 12 (hES cells [1]; 20 μM in END2-CM): almost completely suppressed | beating (hES cells [1]; 25 μM in END2-CM): no beating detectable | size of the contracting area and beating frequency of beating foci (hES cells [1]; END2-CM with SB203580): positive effect | beating EBs at day 12 (hES cells [1]; [11]): 78% | beating foci on EBs (hES cells [1]; SF medium supplemented with 5 μM): beating foci were detected | number of beating foci per EB at day 12 (hES cells [1]; added during the first 3 days of differentiation): remarkable increase | percentage of beating EBs (hES cells [1]; hES batches less responsive to END2-CM (below 50% beating), SB203580 in END2-CM): more than 60% | number of beating foci (hES cells [1]; [12]): no effect | number of beating foci (hES cells [1]; up to 10 μM in END2-CM, 12 days, vs non-supplemented END2-CM): increase | inhibition of JNK and/or p42/p44 MAP kinase [6]: does not inhibit | percentage of cardiomyocytes (hES cells [2]; 5 μM in END2-CM, day 13): slightly elevated | proportion of cardiomyocytes (hES cells [2]; 5 μM in bSFS, day 13): almost tripled | cardiomyocytes (MF-20 positive) in EBs at day 12 (hES cells [2]; [11]): 21.7% | day 13 cell count per well of a 6-well plate (hES cells [3]; CM + 5 μM SB203580): 3.63 × 10^6 | total cell number at day 12 (hES cells [3]; Example 5, END2-CM alone, or END2-CM supplemented with 5 μM SB203580): 1.16×10^6 cells/well | percentage of beating EBs (hES cells [7]): 60-87% | expression of cardiac markers at day 12 (hES cells [4]; 5 μM from the start in END2-CM vs END2-CM alone): increased expression | Brachyury expression around day 4 (hES cells [4]; 5 μM in END2-CM): strong upregulation | expression of skeletal (Myf5), endoderm (Sox17) or neuroectoderm (Sox1) markers (hES cells [4]; 5 μM in END2-CM): did not induce expression | expression of the cardiac markers Nkx2.5 and α-MHC at day 12 (hES cells [4]; 5 μM in END2-CM): higher expression | Brachyury expression (hES cells [4]; 5 and 20 μM in END2-CM): upregulated | Sox1 expression (hES cells [4]; END2-CM supplemented with 25 μM): significantly expressed | α-MHC expression at day 12 (hES cells [4]; Example 7, 5 μM in END2-CM): increased | expression of precardiac mesoderm (Nkx2.5) and cardiac marker genes (hES cells [4]; Example 7, 20 μM in END2-CM): reduced | Sox1 expression (hES cells [4]; SF medium, from 10 μM onwards): upregulated | Sox1 expression (hES cells [4]; [13]): strongly upregulated | Sox17 expression at day 12 (hES cells [4]; [13]): higher expressed | Mesp1 expression (hES cells [4]; higher concentration (20 μM) in END2-CM): comparable to EBs grown in SF medium | expression of α-MHC (hES cells [4]; highest concentration (25 μM) in END2-CM): barely detectable | expression of α-MHC at day 12 (hES cells [4]; [12]): no effect | Mesp1 expression (hES cells [4]; low concentration (5 μM) in END2-CM): higher expressed | expression of α-MHC (hES cells [4]; over 10 μM in END2-CM): declined | cardiomyocyte differentiation in P19 [8]: prevented cardiomyocyte differentiation

O=C1O[C@H]([C@@H](O)CO)C(O)=C1O [Vitamin C]
increase in the number of beating EBs (hES cells [1]; [14]): up to 20% | expression of cardiac specific markers ANF or α-MHC (hES cells [4]; [14]): increased | increase in the number of beating areas (hES cells [9]): up to 40%

Reference: patent US9422521B2, “Differentiation of pluripotent stem cells with a kinase inhibitor or PGI2” (ES Cell International Pte Ltd., priority 2005, dated 2016)
